Structures are written as SMILES.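 Results reflect a 48-hour exposure of cells in 96-well plates to compound at five concentrations. GI50 marks 50% less growth.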 The source made the active and inactive calls. Rule as the data show it: active = GI50 up to about 1.1 µM and inactive = higher.

Test systems include UACC-257; NCI-H226; A549; UACC-62; HT-29; KM12; SF-539; HCT-116; RPMI-8226; A498; SK-MEL-5; MOLT-4; CCRF-CEM; SW-620; NCI/ADR-RES; MCF7; SR; PC-3; DU-145.
What all share (test): growth of human tumour cells (NCI), 48 h

`NC(CCCNCc1ccccc1O)C(=O)O` (stereo not drawn): the GI50 in the experiment with UACC-257, in the experiment on NCI-H226, in the experiment on A549, with UACC-62, with HT-29 and with KM12 was > 100 µM (inactive) each time. The GI50 with SF-539, in the experiment with HCT-116, with RPMI-8226, in the experiment with A498, in the experiment on SK-MEL-5 and with MOLT-4 was > 100 µM (inactive) in each case. The GI50 in the experiment with CCRF-CEM and in the experiment on SW-620 was > 100 µM (inactive) each time.

With `C=C1CCCC(C)(C)[C@@H]1CC/C(C)=C/Cn1c2cccc(=O)c-2nc2ccccc21`, the GI50 in the experiment with UACC-257 was 1.96 µM (inactive); with NCI-H226, 3.99 µM (inactive); with A549, 1.72 µM (inactive); with UACC-62 it was 0.771 µM (active); in the experiment with HT-29, 1.77 µM (inactive); in the experiment with KM12 it was 2.81 µM (inactive). For the same compound, the GI50 with SF-539 is 1.66 µM (inactive); with HCT-116 it was 1.35 µM (inactive); in the experiment on NCI/ADR-RES, 0.656 µM (active); with RPMI-8226, 2.04 µM (inactive); with MCF7 it was 2.55 µM (inactive); in the experiment with A498, 3.52 µM (inactive). Also, the GI50 in the experiment on SK-MEL-5 is 3.95 µM (inactive); in the experiment with MOLT-4, 0.41 µM (active); in the experiment on CCRF-CEM, 0.406 µM (active); with SW-620 it was 1.61 µM (inactive).

On to `O=C1C(Cl)N(c2c(Cl)cccc2Cl)C1c1c[nH]c2ccccc12` (stereo not drawn), for which the GI50 in the experiment on UACC-257, in the experiment with A549, in the experiment with UACC-62, in the experiment on HT-29, with KM12 and in the experiment with SF-539 was > 100 µM (inactive) throughout. In addition, the GI50 in the experiment with HCT-116, with RPMI-8226, in the experiment on SR, in the experiment with SK-MEL-5, in the experiment on MOLT-4 and in the experiment on CCRF-CEM was > 100 µM (inactive) in each case. Besides, the GI50 in the experiment with SW-620 is > 100 µM (inactive).

In the case of `CCCCCCCCCCCCCCCCNCCCN(C)CCCN`, the GI50 in the experiment on UACC-257 is 22 µM (inactive); with NCI-H226 it was 19.8 µM (inactive); with A549, 16.7 µM (inactive); in the experiment on UACC-62 it was 17.3 µM (inactive); in the experiment with HT-29 it was 19.3 µM (inactive); in the experiment with KM12, 18.4 µM (inactive). Further, the GI50 in the experiment on SF-539 is 17.8 µM (inactive); in the experiment on HCT-116, 18.7 µM (inactive); with RPMI-8226, 20.2 µM (inactive); in the experiment on SR, 21 µM (inactive); with A498, 18.2 µM (inactive); with SK-MEL-5, 16 µM (inactive). For the same compound, the GI50 with MOLT-4 is 28.8 µM (inactive); in the experiment with SW-620, 18.5 µM (inactive).

On to `CCCCN(CCCC)C1=Nc2ccccc2-n2c(nnc2C(=O)OCC)C1`, for which the GI50 was 17.4 µM (inactive) with UACC-257; 50.6 µM (inactive) with NCI-H226; 33.9 µM (inactive) in the experiment with A549; 47.2 µM (inactive) in the experiment on UACC-62; 22 µM (inactive) in the experiment with HT-29; 29.4 µM (inactive) in the experiment with KM12. Further, the GI50 was 44.4 µM (inactive) with SF-539; 27.4 µM (inactive) in the experiment with HCT-116; 17.4 µM (inactive) with PC-3; 39.2 µM (inactive) in the experiment on NCI/ADR-RES; 26.1 µM (inactive) in the experiment on RPMI-8226; 19.1 µM (inactive) in the experiment with SR. Besides, the GI50 in the experiment on MCF7 is 37.2 µM (inactive); in the experiment with SK-MEL-5, 15.1 µM (inactive); with DU-145, 75.3 µM (inactive); in the experiment on MOLT-4 it was 27 µM (inactive); with CCRF-CEM, 43.5 µM (inactive); in the experiment with SW-620, 58.3 µM (inactive).

`CCCc1onc(CCC(=O)N(Cc2ccccc2)Cc2ccccc2)c1CC`: the GI50 with UACC-257, with UACC-62, with HT-29, in the experiment on KM12, in the experiment on RPMI-8226 and with A498 was > 100 µM (inactive) throughout. The GI50 in the experiment on MOLT-4 and with CCRF-CEM was > 100 µM (inactive) throughout.

Take `O=C(O)CCC(=O)N1c2ccccc2CC1c1c[nH]c2ccccc12` (stereo not drawn): the GI50 with UACC-257 is > 100 µM (inactive); in the experiment with NCI-H226, > 100 µM (inactive); with A549 it was > 100 µM (inactive); in the experiment on UACC-62 it was > 100 µM (inactive); in the experiment with HT-29, > 100 µM (inactive); in the experiment with KM12, 65.6 µM (inactive). For the same compound, the GI50 with SF-539, in the experiment with HCT-116, in the experiment with RPMI-8226, with A498, in the experiment on SK-MEL-5 and with MOLT-4 was > 100 µM (inactive) in each case. In addition, the GI50 with CCRF-CEM and with SW-620 was > 100 µM (inactive) in each case.

With `CCCCCCCCCCCC1CCCC(C)N1` (stereo not drawn), the GI50 was 45.8 µM (inactive) in the experiment with UACC-257; 76.9 µM (inactive) in the experiment on NCI-H226; 88.7 µM (inactive) with A549; 36.7 µM (inactive) in the experiment on UACC-62; 20.6 µM (inactive) in the experiment with HT-29; 30.9 µM (inactive) in the experiment on KM12. For the same compound, the GI50 in the experiment on SF-539 is 69.8 µM (inactive); in the experiment with HCT-116, 36.8 µM (inactive); in the experiment on NCI/ADR-RES, 72.4 µM (inactive); in the experiment on RPMI-8226, 23.2 µM (inactive); in the experiment with MCF7, 50 µM (inactive); in the experiment on A498 it was 51.5 µM (inactive). Also, the GI50 in the experiment with SK-MEL-5 is 36.4 µM (inactive); with MOLT-4, 15.9 µM (inactive); in the experiment on CCRF-CEM, 23.3 µM (inactive); with SW-620, 58.3 µM (inactive).

On to `COc1cc(CCc2ccc(OCCN(C)C)cc2)cc(OC)c1OC`, for which the GI50 in the experiment with UACC-257 was 72.4 µM (inactive); with NCI-H226, 79.6 µM (inactive); in the experiment on A549, > 100 µM (inactive); in the experiment with UACC-62, > 100 µM (inactive); in the experiment on HT-29, 34.2 µM (inactive); in the experiment on KM12, > 100 µM (inactive). Also, the GI50 was > 100 µM (inactive) in the experiment on SF-539; 60.4 µM (inactive) in the experiment on HCT-116; 28.6 µM (inactive) in the experiment on RPMI-8226; 49.8 µM (inactive) in the experiment with SR; 76 µM (inactive) in the experiment with A498; 24.1 µM (inactive) in the experiment on SK-MEL-5. Further, the values for the GI50 in the experiment with MOLT-4, with CCRF-CEM and in the experiment on SW-620 were 32.6 µM (inactive), > 100 µM (inactive) and > 100 µM (inactive), respectively.

In the case of `COC(=O)CCc1ccc(CCC(=O)OC)cc1`, the GI50 in the experiment with UACC-257, with A549, in the experiment with HT-29, in the experiment with SF-539, with HCT-116 and with PC-3 was > 100 µM (inactive) in each case. Further, the GI50 in the experiment on NCI/ADR-RES, with RPMI-8226, with SR, in the experiment on MCF7, in the experiment on A498 and in the experiment on SK-MEL-5 was > 100 µM (inactive) in each case. Also, the GI50 with DU-145, with MOLT-4, with CCRF-CEM and in the experiment on SW-620 was > 100 µM (inactive) throughout.

`Cc1cc(N(CCC#N)CCC#N)ccc1/C=C(\NC(=O)/C=C/c1ccccc1)NC(=O)Nc1ccccc1C`: the GI50 in the experiment on UACC-257 was > 100 µM (inactive); with NCI-H226, 22.6 µM (inactive); with A549 it was > 100 µM (inactive); with UACC-62 it was 46.1 µM (inactive); with HT-29, > 100 µM (inactive); in the experiment with KM12, > 100 µM (inactive). Further, the GI50 with SF-539 was 38.1 µM (inactive); with HCT-116, > 100 µM (inactive); in the experiment on RPMI-8226 it was > 100 µM (inactive); in the experiment on A498 it was 65.3 µM (inactive); in the experiment with SK-MEL-5 it was 61 µM (inactive); in the experiment on MOLT-4 it was > 100 µM (inactive). The GI50 in the experiment with CCRF-CEM and in the experiment on SW-620 was > 100 µM (inactive) in each case.

`CCP(=O)(CC)C(Cl)(Cl)C(=O)NC`: the GI50 with UACC-257, in the experiment on NCI-H226, with A549, in the experiment on HT-29, in the experiment with HCT-116 and in the experiment on PC-3 was > 100 µM (inactive) in each case. The GI50 in the experiment on NCI/ADR-RES, in the experiment with RPMI-8226, in the experiment with SR, in the experiment with SK-MEL-5, in the experiment with DU-145 and with MOLT-4 was > 100 µM (inactive) in each case. Moreover, the GI50 in the experiment on CCRF-CEM and with SW-620 was > 100 µM (inactive) each time.

Take `C[C@@]12CC[C@H]3[C@@H]4CCC(=O)N[C@@]4(C)CC[C@@H]3[C@@]1(C)CC[C@H](OC(=O)Cc1ccc(N(CCCl)CCCl)cc1)C2`: the GI50 in the experiment on UACC-257 is 24.8 µM (inactive); in the experiment on NCI-H226, 17.2 µM (inactive); with A549, 15.7 µM (inactive); in the experiment with UACC-62, 15.5 µM (inactive); in the experiment on HT-29, 14.7 µM (inactive); in the experiment on KM12, 22.7 µM (inactive). Besides, the GI50 is 17.3 µM (inactive) in the experiment with SF-539; 16.4 µM (inactive) in the experiment with HCT-116; 18.3 µM (inactive) in the experiment on NCI/ADR-RES; 18.4 µM (inactive) with RPMI-8226; 11.7 µM (inactive) with MCF7; 18.7 µM (inactive) in the experiment on A498. Also, the GI50 in the experiment with SK-MEL-5 was 13.7 µM (inactive); in the experiment with MOLT-4, 10.1 µM (inactive); in the experiment with CCRF-CEM, 11.5 µM (inactive); in the experiment on SW-620, 18.2 µM (inactive).

Source of the values: ChEMBL document CHEMBL1201862, “PubChem BioAssay data set” (2004).
